Columns and labels:
rat C6 glioma cells = experiment: GDNF production promoting action in rat C6 glioma cells (ELISA of culture supernatant); assay type: cell-based; conditions: Rattus norvegicus, C6 glioma, 48 h; concentration which causes 50% increase of GDNF relative to the control group; cultured 2 days with test compound; GDNF in culture supernatant by ELISA
Experimental: Using rat C6 glioma cells, the GDNF production promoting action of the compound of the present invention was evaluated.
Rat C6 glioma cells (ATCC) were grown in Dulbecco's Modified Eagle's Medium (DMEM) containing 10% FBS (Fetal Bovine Serum) in a collagen type 1 coated 75 cm^2 culture flask (SUMITOMO BAKELITE Co., Ltd.) until near confluent, detached by trypsin treatment and washed once with DMEM containing 10% FBS.
The cells after washing were diluted with 10% FBS-containing DMEM to a concentration of 5×10^4/mL and seeded at 0.3 mL/well in each well of collagen type 1 coated 48 well culture dish (SUMITOMO BAKELITE Co., Ltd.). After 3 days, the culture in the culture dish was placed in a 1% BSA (bovine serum albumin, Sigma)-containing DMEM medium supplemented with various concentrations of test compound, and further cultured for 2 days. The culture supernatant was recovered and preserved at −80° C. until measurement of GDNF.
The content of GDNF in the culture supernatant was measured by the following ELISA Method.
Anti-GDNF antibody (MAB212, R&D) was diluted with TBS (Tris buffered physiological saline: 25 mmol/L Tris-HCl (pH 8.0), 150 mmol/L NaCl) to 2 μg/mL and dispensed at 0.1 mL/well to each well of a 96-well immunoplate. The 96-well immunoplate was incubated overnight at 4° C. and washed once with TBS containing Tween 20 at 0.05% (hereinafter to be abbreviated as TBST). A blocking solution (TBS containing 1% BSA and 5% sucrose) was added at 0.2 mL/well to each well after washing, and the plate was incubated at room temperature for 1 hr., after which each well was washed twice with TBST. The culture supernatant (0.1 mL) of the aforementioned C6 cells was added to each well after washing and the plate was incubated at room temperature for 3 hrs., after which the wells were washed 5 times with TBST. The 500-fold diluted anti-GDNF antibody (G2791, Promega) was added by 0.1 mL to each well after washing, incubated at room temperature for 2 hrs. and washed 5 times with TBST. A 5000-fold diluted horseradish peroxidase-labeled anti-chicken IgY antibody (G1351, Promega) was added at 0.1 mL/well to each well after washing, incubated at room temperature for 2 hrs. and washed 5 times with TBST. A substrate solution (TMB substrate solution, BIO-RAD) was added at 0.1 mL/well to each well after washing and allowed to develop color at room temperature for 8 min. To stop the reaction, 0.1 mL of 1 mol/L phosphoric acid was added to each well in coloring developing reaction. The absorbance of the reaction solution at 450 nm wavelength was measured.
In the same manner as above except the test compound was not used, the ELISA Method was performed and this was used as a control group.
Using various concentrations of GDNF (Promega), ELISA Method was performed in the same manner as above and standard line was prepared.
From the aforementioned absorbance and standard line, GDNF content in a sample was calculated and the concentration (EC50), which causes 50% increase of GDNF relative to the control group was calculated from the regression line.

PC12 cells = experiment: neuroprotective action (neurite network formation) in PC12 cells; assay type: cell-based; conditions: test compound 0.3-3.0 μmol/L, two days, DMEM with 0.5% FCS and 2 ng/mL NGF; observed under a microscope
Experimental: Using PC12 cells, the neuroprotective action of the compound of the present invention was evaluated.
PC12 cells were precultured for one day in a DMEM (Dulbecco's Modified Eagle's Medium) culture solution containing 10% FCS (Fetal Calf Serum) in an incubator at 37° C., 5% CO2, and seeded at 5×10^3/well in a 24 well plate (Falcon) in the same medium. After the cells adhered to the bottom surface, the culture was changed to a DMEM culture solution containing 0.5% FCS and 2 ng/mL of NGF (Wako Pure Chemical Industries, Ltd.). After culturing overnight, the test compound was added at a concentration of 0.3-3.0 μmol/L and the cells were cultured for two more days. Gultalaldehyde was added to the cultured to a final concentration of 2% and the cells were fixed for 1 hr., after which stained with a Diff-Quick (International Reagents Corporation). The cells were washed, dried with air and observed under a microscope.

Compound: Cn1ncc(/C=C/C(=O)Nc2ccc(Cn3cccn3)cc2)c1-c1ccc(F)cc1 [Example 161, (2E)-3-[5-(4-Fluorophenyl)-1-methyl-1H-pyrazol-4-yl]-N-[4-(1H-pyrazol-1-ylmethyl)phenyl]acrylamide]
- EC50 (rat C6 glioma cells): 130 nM
- melting point: 189 to 191 °C
- formation of neurite network (PC12 cells): promoted formation of neurite network

Compound: Cn1ncc(/C=C/C(=O)Nc2ccc(Cn3cnc4ccccc43)cc2)c1-c1ccc(F)cc1 [Example 185, (2E)-N-[4-(1H-Benzimidazol-1-ylmethyl)phenyl]-3-[5-(4-fluorophenyl)-1-methyl-1H-pyrazol-4-yl]acrylamide]
- EC50 (rat C6 glioma cells): 300 nM
- melting point: 243 to 244 °C
- formation of neurite network (PC12 cells): promoted formation of neurite network

Compound: Cn1ncc(/C=C/C(=O)Nc2ccc(CN3CCOCC3)cc2)c1-c1ccc(F)cc1 [Example 192, (2E)-3-[5-(4-Fluorophenyl)-1-methyl-1H-pyrazol-4-yl]-N-[4-(4-morpholinylmethyl)phenyl]acrylamide]
- EC50 (rat C6 glioma cells): 540 nM
- melting point: 202 to 203 °C
- formation of neurite network (PC12 cells): promoted formation of neurite network

Compound: Cn1ncc(/C=C/C(=O)Nc2ccc(CS(C)(=O)=O)cc2)c1-c1ccc(F)cc1 [Example 222, (2E)-3-[5-(4-fluorophenyl)-1-methyl-1H-pyrazol-4-yl]-N-(4-[(methylsulfonyl)methyl]phenyl)acrylamide]
- EC50 (rat C6 glioma cells): 120 nM
- melting point: 251 to 252 °C
- formation of neurite network (PC12 cells): promoted formation of neurite network

Compound: CCS(=O)(=O)Cc1ccc(NC(=O)/C=C/c2cnn(C)c2-c2ccc(F)cc2)cc1 [Example 223, (2E)-N-{4-[(Ethylsulfonyl)methyl]phenyl}-3-[5-(4-fluorophenyl)-1-methyl-1H-pyrazol-4-yl]acrylamide]
- EC50 (rat C6 glioma cells): 36 nM
- melting point: 257 to 258 °C
- formation of neurite network (PC12 cells): promoted formation of neurite network

— US7423159B2, “Agent for preventing or treating neuropathy” (Takeda Pharmaceutical Company Limited, priority 2002, dated 2008)
